The record followed here is patent publication US20230158157A1, “POTENT AND SELECTIVE DEGRADERS OF ALK” (DANA-FARBER CANCER INSTITUTE, INC., priority 2020, published 2023).

Holding throughout (assay type): cell-based
The target of one assay is T1, EML4-ALK (Homo sapiens, UniProt Q9UM73).
T1 construct: endogenous in cells; host or cells: H3122 (NSCLC), single-cell clone after CRISPR knock-in of HiBit; the other entry of the earlier key: EML4 (Q9HC35, Echinoderm microtubule-associated protein-like 4)
The experiment in a line: EML4-ALK HiBit degradation assay in CRISPR-tagged H3122 cells (Nano-Glo HiBit Lytic Detection).

A further assay relates to H3122 cells. The experiment in a line: CTG. The conditions noted are these: read-out: CTG IC50.
A further assay deals with T2, FAK (Homo sapiens, UniProt Q05397).
T2 construct: FAK Degradation; endogenous in cells; host or cells: H3122
Briefly: FAK degradation (H3122 cells). As to conditions: for Dmax: NCI-H3122, Table 3.

A further assay concerns the target T3, WT EML4-ALK V3 (Homo sapiens, UniProt Q9UM73).
T3 construct: expressed in transfected cells; host or cells: Ba/F3; the other entry of the earlier key: EML4 (Q9HC35, Echinoderm microtubule-associated protein-like 4)
The experiment in a line: Western blot of pALK Tyr1507, ALK and tubulin in WT EML4-ALK V3 Ba/F3 cells. The protocol: (§1) Cells treated with DMSO, compound 96, negative control of 96 or Loratinib at indicated concentrations (nM).
(§2) The cells were collected and washed with PBS buffer. Cell lysates were prepared by using NP40 lysis buffer (Invitrogen™) supplemented with complete protease inhibitor cocktail (Roche), PhosSTOP™ phosphatase inhibitor cocktail (Roche) and PMSF (1 mM). The lysates were cleared by centrifugation and resolved using Bolt™ 4-12% Bis-Tris plus gels and Western blotted to detect proteins of interest. Antibodies to phospho-ALK^Tyr1507 and tubulin (#14678S and #3873, Cell Signaling Technologies®) were used according to the manufacturers' instructions. For Western Blot visualization, Odyssey® Clx (Li-cor) was utilized.
(A western blot detects proteins with antibodies after separation by electrophoresis.)

In a further assay the target is T4, G1202R EML4-ALK V3 (Homo sapiens, UniProt Q9UM73, G1202R).
T4 construct: expressed in transfected cells; host or cells: Ba/F3; the other entry of the earlier key: EML4 (Q9HC35, Echinoderm microtubule-associated protein-like 4)
The experiment in a line: Western blot of pALK Tyr1507, ALK and tubulin in G1202R EML4-ALK V3 Ba/F3 cells. The method, then: as §1, §2

The mark [1] stands for this setting: Table 3, H3122 cells, 16 hours, read-out: ALK Degradation (H3122 cells) DC50.
The mark [2] stands for this setting: Homo sapiens, NCI-H3122, Table 3.
Setting [3] is: NCI-H3122, Table 3, H3122 cells, 16 hours, read-out: ALK Degradation (H3122 cells) Dmax.
The mark [4] stands for this setting: compared to Alectinib and Lorlatinib.

Like-named read-outs stand apart in the source and are kept apart here.

T2 sequence (Q05397 whole entry): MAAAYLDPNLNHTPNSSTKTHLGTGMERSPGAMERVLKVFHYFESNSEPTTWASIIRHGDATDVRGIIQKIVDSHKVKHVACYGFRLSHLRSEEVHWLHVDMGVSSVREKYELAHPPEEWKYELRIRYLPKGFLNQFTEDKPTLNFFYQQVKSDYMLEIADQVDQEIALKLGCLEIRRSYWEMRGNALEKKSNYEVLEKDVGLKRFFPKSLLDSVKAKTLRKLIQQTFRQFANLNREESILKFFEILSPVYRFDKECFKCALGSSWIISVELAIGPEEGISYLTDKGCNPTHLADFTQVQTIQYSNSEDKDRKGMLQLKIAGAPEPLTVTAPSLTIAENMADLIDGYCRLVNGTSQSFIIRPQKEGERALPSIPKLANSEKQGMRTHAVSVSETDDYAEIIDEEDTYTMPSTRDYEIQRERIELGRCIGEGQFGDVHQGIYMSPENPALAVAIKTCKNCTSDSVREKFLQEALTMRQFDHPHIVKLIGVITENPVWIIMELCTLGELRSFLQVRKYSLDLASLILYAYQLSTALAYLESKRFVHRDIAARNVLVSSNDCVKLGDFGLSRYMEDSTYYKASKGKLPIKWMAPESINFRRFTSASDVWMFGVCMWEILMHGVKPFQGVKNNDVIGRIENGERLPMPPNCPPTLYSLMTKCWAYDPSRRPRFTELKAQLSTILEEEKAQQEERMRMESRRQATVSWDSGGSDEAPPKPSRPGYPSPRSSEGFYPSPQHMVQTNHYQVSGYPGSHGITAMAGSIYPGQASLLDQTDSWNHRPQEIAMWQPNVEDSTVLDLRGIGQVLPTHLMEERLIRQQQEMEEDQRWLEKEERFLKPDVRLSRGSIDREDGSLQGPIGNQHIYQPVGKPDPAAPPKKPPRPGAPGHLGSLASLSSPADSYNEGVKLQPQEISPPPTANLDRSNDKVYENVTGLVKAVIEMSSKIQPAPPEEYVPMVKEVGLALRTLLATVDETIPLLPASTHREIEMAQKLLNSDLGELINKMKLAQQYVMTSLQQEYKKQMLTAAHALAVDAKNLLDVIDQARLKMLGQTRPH
T1 sequence (Q9UM73 with tags, fused parts or gaps): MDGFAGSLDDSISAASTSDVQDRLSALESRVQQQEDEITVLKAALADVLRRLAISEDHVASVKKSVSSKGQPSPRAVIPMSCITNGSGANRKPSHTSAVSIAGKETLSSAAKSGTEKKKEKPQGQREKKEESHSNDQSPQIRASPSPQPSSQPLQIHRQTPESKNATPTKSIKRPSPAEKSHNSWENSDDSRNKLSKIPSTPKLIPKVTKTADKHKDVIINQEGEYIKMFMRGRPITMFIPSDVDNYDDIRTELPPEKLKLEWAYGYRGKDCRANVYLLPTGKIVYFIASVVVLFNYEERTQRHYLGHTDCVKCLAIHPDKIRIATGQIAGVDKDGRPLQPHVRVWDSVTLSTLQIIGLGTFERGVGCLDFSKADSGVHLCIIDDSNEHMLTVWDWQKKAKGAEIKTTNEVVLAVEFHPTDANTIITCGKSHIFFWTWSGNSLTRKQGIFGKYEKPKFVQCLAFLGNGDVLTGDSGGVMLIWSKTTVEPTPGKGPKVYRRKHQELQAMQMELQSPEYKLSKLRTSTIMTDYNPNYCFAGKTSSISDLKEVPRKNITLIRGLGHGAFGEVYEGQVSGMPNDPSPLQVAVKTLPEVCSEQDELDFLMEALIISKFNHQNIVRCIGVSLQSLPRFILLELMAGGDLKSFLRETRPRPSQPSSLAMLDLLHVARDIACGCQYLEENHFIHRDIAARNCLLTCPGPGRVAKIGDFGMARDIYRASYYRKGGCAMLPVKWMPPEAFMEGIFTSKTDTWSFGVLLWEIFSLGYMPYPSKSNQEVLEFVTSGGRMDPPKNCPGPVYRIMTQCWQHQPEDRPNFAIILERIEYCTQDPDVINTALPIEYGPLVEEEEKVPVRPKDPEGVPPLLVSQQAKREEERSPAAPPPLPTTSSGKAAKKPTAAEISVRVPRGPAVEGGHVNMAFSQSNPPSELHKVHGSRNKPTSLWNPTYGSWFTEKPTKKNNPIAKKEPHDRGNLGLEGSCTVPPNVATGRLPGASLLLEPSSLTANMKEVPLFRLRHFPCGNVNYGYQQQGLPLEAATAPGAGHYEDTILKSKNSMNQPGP
T3 sequence (Q9UM73 1058-1620 limits assumed): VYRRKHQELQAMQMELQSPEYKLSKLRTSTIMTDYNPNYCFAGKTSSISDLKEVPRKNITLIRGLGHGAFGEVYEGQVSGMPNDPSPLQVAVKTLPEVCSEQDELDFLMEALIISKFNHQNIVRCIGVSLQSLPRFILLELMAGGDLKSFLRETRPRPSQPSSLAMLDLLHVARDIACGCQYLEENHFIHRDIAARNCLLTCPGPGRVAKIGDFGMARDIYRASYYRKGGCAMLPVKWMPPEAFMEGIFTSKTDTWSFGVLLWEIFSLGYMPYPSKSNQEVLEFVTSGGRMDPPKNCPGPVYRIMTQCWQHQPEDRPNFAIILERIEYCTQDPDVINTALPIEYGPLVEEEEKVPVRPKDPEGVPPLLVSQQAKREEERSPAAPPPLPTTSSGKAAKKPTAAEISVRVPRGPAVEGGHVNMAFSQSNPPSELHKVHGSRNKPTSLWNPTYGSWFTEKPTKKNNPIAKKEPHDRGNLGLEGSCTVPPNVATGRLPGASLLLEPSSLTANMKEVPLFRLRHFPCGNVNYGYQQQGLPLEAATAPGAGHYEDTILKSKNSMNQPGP
T4 sequence (Q9UM73 1058-1620 G1202R limits assumed): as the sequence (Q9UM73 1058-1620 limits assumed) above, with G145R counted along it

Take `COc1cc(N2CCC(NC(=O)CCCCCCCCCC(=O)N[C@H](C(=O)N3C[C@H](O)C[C@H]3C(=O)NCc3ccc(-c4scnc4C)cc3)C(C)(C)C)CC2)ccc1Nc1ncc(Cl)c(Nc2ccccc2P(C)(C)=O)n1` [SIAIS117]: the “ALK Degradation (H3122 cells) Dmax” value at EML4-ALK (Table 3, H3122 cells, 16 hours) came out at 43%. The DC50 (in general, the midpoint of the concentration-degradation curve) at EML4-ALK (setting [1]) worked out at 9 nM. In the assay with H3122 cells (Table 3), the IC50 – broadly, the concentration needed to halve the response being measured – worked out at 42 nM. In addition, at FAK (Table 3), the DC50 came to 10 nM and the “FAK Degradation (H3122 cells) Dmax” value was 70%.

For `COc1cc(CCN(C)C(=O)CCOCCC(=O)N[C@H](C(=O)N2C[C@H](O)C[C@H]2C(=O)N[C@@H](C)c2ccc(-c3scnc3C)cc2)C(C)(C)C)c(C)cc1Nc1ncc(Cl)c(Nc2ccccc2P(C)(C)=O)n1` [compound 71, (2S,4R)-1-((S)-2-(3-(3-((4-((5-chloro-4-((2-(dimethylphosphoryl)phenyl)amino)pyrimidin-2-yl)amino)-5-methoxy-2-methylphenethyl)(methyl)amino)-3-oxopropoxy)propanamido)-3,3-dimethylbutanoyl)-4-hydroxy-N-((S)-1-(4-(4-methylthiazol-5-yl)phenyl)ethyl)pyrrolidine-2-carboxamide], the Dmax (commonly the largest share of the target that was removed) at EML4-ALK (NCI-H3122, Table 2, first Dmax column, H3122 EML4-ALK-HiBit, 16 hours, read-out: Degradation Dmax) stood at 50.9%; on EML4-ALK (NCI-H3122, Table 2, second Dmax column, H3122 EML4-ALK-HiBit, 16 hours, read-out: Degradation Dmax), 43.7%; at EML4-ALK (NCI-H3122, Table 2, average Dmax, read-out: Degradation Avg. Dmax) it was 47.3%. The 50% degradation concentration (DC50) came out at 543 nM on EML4-ALK (Table 2, first DC50 column, H3122 EML4-ALK-HiBit, 16 hours, read-out: Degradation DC50); 150 nM on EML4-ALK (Table 2, second DC50 column, H3122 EML4-ALK-HiBit, 16 hours, read-out: Degradation DC50); 350 nM on EML4-ALK (Table 2, average DC50, read-out: Degradation Avg. DC50). The IC50 in the assay on H3122 cells (Homo sapiens, NCI-H3122, Table 2) worked out at 222 nM.

Consider `COc1cc(CCNCCCCCC#Cc2cccc3c2CN(C2CCC(=O)NC2=O)C3=O)c(C)cc1Nc1ncc(Cl)c(Nc2ccccc2S(=O)(=O)C(C)C)n1` (stereo not shown) [compound 91, 3-(4-(7-((4-((5-chloro-4-((2-(isopropylsulfonyl)phenyl)amino)pyrimidin-2-yl)amino)-5-methoxy-2-methylphenethyl)amino)hept-1-yn-1-yl)-1-oxoisoindolin-2-yl)piperidine-2,6-dione], for which the half-inhibitory concentration (IC50) with H3122 cells (setting [2]) was 50 nM. Besides, on FAK, the Dmax was determined as 85%. This compound also showed a DC50 at FAK (Table 3) of 4 nM.

For the compound `COc1cc(CCNCCCCCC#Cc2ccc3c(c2)CN(C2CCC(=O)NC2=O)C3=O)c(C)cc1Nc1ncc(Cl)c(Nc2ccccc2S(=O)(=O)C(C)C)n1` (stereo not shown) [compound 92], the IC50 with H3122 cells (setting [2]) stood at 50 nM. The compound further came in with a Dmax at FAK of 93%. Half-maximal degradation on FAK (Table 3) (DC50) was put at 4 nM.

For the compound `COc1cc(C2CCN(CCCCCC#Cc3cccc4c3C(=O)N(C3CCC(=O)NC3=O)C4=O)CC2)c(C)cc1Nc1ncc(Cl)c(Nc2ccccc2S(=O)(=O)C(C)C)n1` (stereo not shown) [compound 93, 4-(7-(4-(4-((5-chloro-4-((2-(isopropylsulfonyl)phenyl)amino)pyrimidin-2-yl)amino)-5-methoxy-2-methylphenyl)piperidin-1-yl)hept-1-yn-1-yl)-2-(2,6-dioxopiperidin-3-yl)isoindoline-1,3-dione], the values for the Dmax at EML4-ALK (setting [3]) and on FAK were 82% and 89%, respectively. The DC50 worked out at 49 nM on EML4-ALK (setting [1]) and 24 nM at FAK (Table 3). In addition, the IC50 in the assay on H3122 cells (setting [2]) worked out at 202 nM.

Regarding `COc1cc(C2CCN(CCCCCC#Cc3cccc4c3CN(C3CCC(=O)NC3=O)C4=O)CC2)c(C)cc1Nc1ncc(Cl)c(Nc2ccccc2S(=O)(=O)C(C)C)n1` (stereo not shown) [compound 94, 3-(4-(7-(4-(4-((5-chloro-4-((2-(isopropylsulfonyl)phenyl)amino)pyrimidin-2-yl)amino)-5-methoxy-2-methylphenyl)piperidin-1-yl)hept-1-yn-1-yl)-1-oxoisoindolin-2-yl)piperidine-2,6-dione], at FAK, the Dmax was 86%.

For `COc1cc(C2CCN(CCCCC#Cc3cccc4c3CN(C3CCC(=O)NC3=O)C4=O)CC2)c(C)cc1Nc1ncc(Cl)c(Nc2ccccc2S(=O)(=O)C(C)C)n1` (stereo not shown) [compound 95, 3-(4-(6-(4-(4-((5-chloro-4-((2-(isopropylsulfonyl)phenyl)amino)pyrimidin-2-yl)amino)-5-methoxy-2-methylphenyl)piperidin-1-yl)hex-1-yn-1-yl)-1-oxoisoindolin-2-yl)piperidine-2,6-dione], the figures for the Dmax on EML4-ALK (setting [3]) and on FAK were 73% and 89%, respectively. For the same compound, the DC50 on EML4-ALK (setting [1]) and on FAK (Table 3) was 1 nM throughout. Besides, the IC50 in the assay on H3122 cells (setting [2]) stood at 4 nM.

As to `COc1cc(C2CCN(CCCC#Cc3cccc4c3CN(C3CCC(=O)NC3=O)C4=O)CC2)c(C)cc1Nc1ncc(Cl)c(Nc2ccccc2S(=O)(=O)C(C)C)n1` (stereo not shown) [compound 96, 3-(4-(5-(4-(4-((5-chloro-4-((2-(isopropylsulfonyl)phenyl)amino)pyrimidin-2-yl)amino)-5-methoxy-2-methylphenyl)piperidin-1-yl)pent-1-yn-1-yl)-1-oxoisoindolin-2-yl)piperidine-2,6-dione], the results for the Dmax on EML4-ALK (setting [3]) and on FAK were 79% and 92%, respectively. For the same compound, the DC50 at EML4-ALK (setting [1]) was 3 nM; at FAK (Table 3), 2 nM. In addition, the IC50 in the assay with H3122 cells (setting [2]) was 12 nM. Also, the “ALK degradation by Western blot” value was “potent degrader” on WT EML4-ALK V3 (FIG. 1A, 1C) and “potent degrader” at G1202R EML4-ALK V3 (FIG. 1B, 1D). Besides, the “pALK inhibition by Western blot” value on WT EML4-ALK V3 (setting [4]) is “significantly improved pALK inhibition compared to Alectinib and Lorlatinib”; on G1202R EML4-ALK V3 (setting [4]), “significantly improved pALK inhibition compared to Alectinib and Lorlatinib”.

`COc1cc(C2CCN(CC#Cc3ccc4c(c3)CN(C3CCC(=O)NC3=O)C4=O)CC2)c(C)cc1Nc1ncc(Cl)c(Nc2ccccc2S(=O)(=O)C(C)C)n1` (stereo not shown) [compound 97, 3-(5-(3-(4-(4-((5-chloro-4-((2-(isopropylsulfonyl)phenyl)amino)pyrimidin-2-yl)amino)-5-methoxy-2-methylphenyl)piperidin-1-yl)prop-1-yn-1-yl)-1-oxoisoindolin-2-yl)piperidine-2,6-dione] showed a Dmax on FAK of 80%. At FAK (Table 3), this compound showed a DC50 of 8 nM.
